Patent publication US9119881B2, “Method of synergistically enhancing the therapeutic efficacy and safety of medication through a combination therapy” (priority 2010, dated 2015)
Marks after values point to notes of the source that are not given here. Each block holds one compound with its values, some of them ahead of it. Where no end group is shown, it is not given here. The star is where a group is joined. Myristoyl = CCCCCCCCCCCCCC(=O)*

Assays:
[1] = as stated in U.S. Pat. No. 6,515,132; cited from earlier work
PPAR γ = biological target: T1, PPAR γ (Mus musculus, UniProt P37238); assay: PPAR γ reporter activity assay in 3T3-L1 preadipocytes; assay type: cell-based; conditions: 6 hrs, 2′5′-dideoxyadenosine 10 μM, PKAi 30 μM; for ABA-induced PPAR γ activation, effect of inhibitor: ABA 10 μM; for Ros-induced PPAR γ activation, effect of inhibitor: Ros 1 μM
T1 construct: expressed in transfected cells; host or cells: 3T3-L1 pre-adipocytes
T1 sequence (P37238 31-505 limits assumed): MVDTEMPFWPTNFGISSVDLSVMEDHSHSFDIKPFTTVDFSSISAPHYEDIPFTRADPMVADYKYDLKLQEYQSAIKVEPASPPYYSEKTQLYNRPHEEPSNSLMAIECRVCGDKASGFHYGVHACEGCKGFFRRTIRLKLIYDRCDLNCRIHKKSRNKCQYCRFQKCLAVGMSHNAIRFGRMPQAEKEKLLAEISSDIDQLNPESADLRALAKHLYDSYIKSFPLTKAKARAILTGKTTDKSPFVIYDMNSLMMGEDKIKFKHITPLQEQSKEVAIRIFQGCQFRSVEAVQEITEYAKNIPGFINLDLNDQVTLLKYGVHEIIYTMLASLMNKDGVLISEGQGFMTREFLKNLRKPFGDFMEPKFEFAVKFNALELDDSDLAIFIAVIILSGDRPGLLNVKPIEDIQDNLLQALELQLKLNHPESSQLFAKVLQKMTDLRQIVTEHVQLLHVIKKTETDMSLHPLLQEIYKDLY
Protocol: For 3T3-L1 preadipocytes cells were treated for 6-h with vehicle (DMSO) or Ros (1 μM) with ABA (10 μM), the cAMP-inhibitor 2′5′ dideoxyadenosine (dideoxy, 10 μM), or 14-22 myristolated PKA inhibitor fragment (PKAi, 30 μM). […] Luciferase activity was normalized to pRL activity in the cell extracts and relative luciferase activity was calculated a ratio of the activity in the treatment wells to control wells. Data are represented as mean±standard error.
A pCMX.PPAR γ expression plasmid and a pTKPPRE3x luciferase reporter plasmid driven by the PPRE-containing Acyl-CoA oxidase promoter (kindly provided by Dr. R M. Evans, The Salk Institute, San Diego, Calif.) were purified using Qiagen's Maxi kit (Valencia, Calif.). […] Cells were co-transfected in the […] with 1.5 μg plasmid DNA and 25 ng of pRL reporter control using F-2 transfection reagents (Targeting Systems, Santee, Calif.) according to the manufacturer's protocol. […] Cells were then treated in replicates of 8 with vehicle (DMSO), rosiglitazone (1 or 10 μM; Cayman Chemicals, Arm Arbor, Mich.), or ABA (10 μM; Sigma) with and without 2′5′ dideoxyadenosine (10 μM; Sigma) and 14-22 myristolated PKA inhibitor fragment (PKAi, 30 μM; Sigma). […] Luciferase activity, normalized to pRL activity in the cell extracts was determined by using the Dual Luciferase II reporter assay system (Promega, Madison, Wis.) using a Modulus 96-well luminometer (Turner Biosystems, Sunnyvale, Calif.). All values were normalized to control wells to calculate relative luciferase activity.

[2] = Dietary ABA and rosiglitazone in obese db/db mice: body and organ weights; assay type: in vivo; conditions: for Final body weight / Ab. WAT % Body Weight / Liver % Body Weight / Sc. WAT % Body Weight: with or without ABA 100 mg/kg diet; for Final body weight: 60 days
Protocol: Twelve-fifteen week-old BKS.Cg-+Lepr^db/+Lepr^db/OlaHsd (db/db) mice were housed at the animal facilities at Virginia Polytechnic Institute and State University in a room maintained at 75° F., with a 12:12 h light-dark cycle starting from 6:00 AM. All experimental procedures were approved by the Institutional Animal Care and Use Committee of Virginia Polytechnic Institute and State University and met or exceeded requirements of the Public Health Service, National Institutes of Health and the Animal Welfare Act. […] Louis, Mo.) for 60 days. Mice were weighed and fasting (12 h) blood glucose levels were taken weekly. Blood glucose levels were assessed with an ACCU-CHEK® Glucometer (Roche, Indianapolis, Ind.). […] On day 60 mice were sacrificed by CO2 narcosis with secondary thoracotomy. Abdominal WAT, inguinal subcutaneous WAT, and liver were then excised and weighed. Abdominal and subcutaneous WAT were then digested and fractionated.

[3] = db/db mice, Roshi diet (70 mg/kg diet), day 60
[4] = db/db mice, Roslo diet (10 mg/kg diet), day 60

Compound: O=C1NC(=O)C(Cc2ccc3c(c2)CC[C@H](Cc2ccccc2)O3)S1 (stereo partly shown) [Englitazone]
current minimum effective drug dose [1]: 200 μmol/kg diet

Compound: C[C@H]1O[C@@H](n2cnc3c(N)ncnc32)C[C@@H]1O [2′5′-dideoxyadenosine]
ABA-induced PPAR γ activation, effect of inhibitor (PPAR γ): prevented
Ros-induced PPAR γ activation, effect of inhibitor (PPAR γ): no effect

ABA-induced PPAR γ activation, effect of inhibitor (PPAR γ): prevented
Ros-induced PPAR γ activation, effect of inhibitor (PPAR γ): no effect
Compound: PKAi: 14-22 myristoylated PKA inhibitor fragment (Myristoyl-SGRTGRRNA; UniProt P61925 14-22, looked up, fragment)

edema in the interscapular region ([2]; db/db mice fed Ros^hi (70 mg/kg diet)): significant edema
liver weights (in words) ([2]; db/db mice, day 60, low dose Ros, ABA 100 mg/kg diet): significantly increased
Compound: CN(CCOc1ccc(CC2SC(=O)NC2=O)cc1)c1ccccn1 (stereo not shown) [rosiglitazone]
Final body weight ([2]; db/db mice, Roshi diet (70 mg/kg diet)): 64.4 ± 2.4^d g
Ab. WAT % Body Weight [2, 3]: 4.6 ± 0.61^a % Body Weight
Liver % Body Weight [2, 3]: 6.7 ± 2.3^a % Body Weight
Sc. WAT % Body Weight [2, 3]: 3.2 ± 0.43 % Body Weight
Final body weight ([2]; db/db mice, Roslo diet (10 mg/kg diet)): 56.4 ± 2.4^bc g
Ab. WAT % Body Weight [2, 4]: 6.7 ± 0.61^bc % Body Weight
Liver % Body Weight [2, 4]: 9.2 ± 0.51^b % Body Weight
Sc. WAT % Body Weight [2, 4]: 2.4 ± 0.43 % Body Weight
body weights of the mice (in words) ([2]; db/db mice, both low- and high-dose rosiglitazone, 60-day dietary intervention): significantly increased
